Measurements from patent US12491185B2, “Inhibitors of mPTP” (NRG Therapeutics Ltd, priority 2023, dated 2025).

What was measured:
mPTP [1] = test: mPTP activity (Ca2+ retention) assay in isolated rat liver mitochondria; format: biochemical; conditions: examples tested by different contract research organisations, believed comparable
How it was run: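 pIC50 was taken from Fluo5N fluorescence at 10 min after a 75 μM CaCl2 bolus, scaled between DMSO (0%) and 5 μM cyclosporin A (100%). Compounds, ten half-log concentrations from 30 μM to 1 nM final, sat 10 min at RT with fresh female Sprague Dawley rat liver mitochondria energized by succinate plus rotenone.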

mPTP [2] = test: mPTP activity assay in isolated rat brain mitochondria; format: biochemical; conditions: fluorescence at 10 min timepoint
Procedure: MPTP activity was measured in brain mitochondria freshly isolated from female Sprague Dawley (250 to 300 gram) rats. Anaesthetised rats were perfused in-situ with −40 ml cold Dulbecco's Phosphate Buffered Saline (DPBS), then brains dissected and transferred into 30 ml Isolation Buffer (225 mM mannitol, 75 mM sucrose, 1 mM EGTA, adjusted to pH 7.4 with 1M NaOH). The brain was minced using tweezers and a scalpel into −5 mm pieces then transferred into a 50 ml Potterton Dounce homogenization tube on ice containing 10 ml ice-cold isolation buffer (as above with addition of Complete Protease inhibitor; 1 tablet per 50 ml buffer). Homogenisation was carried out using a teflon pestle at 1800 rpm. The slurry was centrifuged at 2000 g for 10 min at 4° C., then the supernatant centrifuged at 12,000 g for 9 min. The pellet was resuspended with a dounce homogeniser in isolation buffer as above but with the addition of 0.02% digitonin, centrifuged at 12,000 g for 11 min and finally resuspended in 5 ml modified isolation buffer (as above but with EGTA reduced to 0.1 mM).
Test compounds were prepared in 384 well polypropylene assay plates as described above for the liver mitochondria assay. A stock mitochondria/Fluo5N assay solution was prepared in 5.6 ml assay buffer (120 mM mannitol, 40 mM MOPS, 5 mM KH2PO4, 60 mM KCl, 10 mM pyruvate, 2 mM malate, 2 mM MgCl2, 20 μM ADP, 1.26 μM oligomycin A, adjusted to pH 7.4) supplemented with Fluo5N pentapotassium salt (2 μM) and 1 ml mitochondria suspension, then transferred (15 μl) into the assay plate containing test compounds and incubated for 10 min at RT. Assay plates were then transferred to a FLIPR Tetra plate reader (Molecular Devices). Dye fluorescence was then measured every 3 sec for a total of 10 min.

Row | Compound | mPTP Rat liver pIC50 (mPTP [1]) | mPTP Rat brain pIC50 (mPTP [2])
1 | CC(NC(=O)c1nn(C)c(=O)[nH]1)C1(Cc2ccccc2)CCC1 (single isomer, unassigned) [Example 24A, N-(1-(1-benzylcyclobutyl)ethyl)-1-methyl-5-oxo-4,5-dihydro-1H-1,2,4-triazole-3-carboxamide] | 6.75 | 7.83
2 | CC(NC(=O)c1nn(C)c(=O)[nH]1)C1(Cc2ccccc2)CCC1 (single isomer, unassigned) [Example 24B, N-(1-(1-benzylcyclobutyl)ethyl)-1-methyl-5-oxo-4,5-dihydro-1H-1,2,4-triazole-3-carboxamide] | <4.52 | 5.49
3 | CC(NC(=O)c1nn(C)c(=O)[nH]1)C(C)(C)Cc1ccccc1 (single isomer, unassigned) [Example 39B, N-(3,3-dimethyl-4-phenylbutan-2-yl)-1-methyl-5-oxo-4,5-dihydro-1H-1,2,4-triazole-3-carboxamide] | 6.56 | 7.62
4 | CC(C)[C@H](CNC(=O)c1nn(C)c(=O)[nH]1)Cc1ccccc1 (single isomer, unassigned) [Example 46B] | 6.97 | 7.68
5 | CC[C@@H](CNC(=O)c1nn(C)c(=O)[nH]1)Cc1ccccc1 (single isomer, unassigned) [Example 54a] | 5.04 | 5.68
6 | CC[C@H](CNC(=O)c1nn(C)c(=O)[nH]1)Cc1ccccc1 (single isomer, unassigned) [Example 54b] | 6.82 | 7.94
7 | CC[C@@H](Cc1ccc(F)cc1F)C(C)NC(=O)c1nn(C)c(=O)[nH]1 (single isomer, unassigned) [Example 223] | 6.90 | 7.60
8 | CC[C@@H](Cc1ccc(F)cc1F)C(C)NC(=O)c1nn(C)c(=O)[nH]1 (single isomer, unassigned) [Example 224] | 4.52 | 5.04
9 | CC(c1ccc(F)cc1F)[C@@H](CNC(=O)c1nccc(=O)[nH]1)C1CC1 (single isomer, unassigned) [Example 225] | 5.47 | 6.66
10 | CC(c1ccc(F)cc1F)[C@@H](CNC(=O)c1nccc(=O)[nH]1)C1CC1 (single isomer, unassigned) [Example 226] | 4.52 | 4.82
11 | Cn1nc(C(=O)NCC(C)(Cc2c(F)cc(F)cc2F)C2CC2)[nH]c1=O (single isomer, unassigned) [Example 227, N-[2-cyclopropyl-2-methyl-3-(2,4,6-trifluorophenyl)propyl]-1-methyl-5-oxo-4H-1,2,4-triazole-3-carboxamide] | 6.21 | 7.76
12 | Cn1nc(C(=O)NCC(C)(Cc2c(F)cc(F)cc2F)C2CC2)[nH]c1=O (single isomer, unassigned) [Example 228, N-[2-cyclopropyl-2-methyl-3-(2,4,6-trifluorophenyl)propyl]-1-methyl-5-oxo-4H-1,2,4-triazole-3-carboxamide] | 6.16 | 7.12
13 | Cn1nc(C(=O)NCC2(Cc3ccc(F)cc3F)CCCO2)[nH]c1=O (single isomer, unassigned) [Example 229] | 6.32 | 6.83
14 | Cn1nc(C(=O)NCC2(Cc3ccc(F)cc3F)CCCO2)[nH]c1=O (single isomer, unassigned) [Example 230] | 6.18 | 6.40
15 | Cn1nc(C(=O)NCC2(Cc3ccc(F)cc3F)CC23CC3)[nH]c1=O (single isomer, unassigned) [Example 231, N-((1-(2,4-difluorobenzyl)spiro[2.2]pentan-1-yl)methyl)-1-methyl-5-oxo-4,5-dihydro-1H-1,2,4-triazole-3-carboxamide] | 6.61 | 7.37
16 | Cn1nc(C(=O)NCC2(Cc3ccc(F)cc3F)CC23CC3)[nH]c1=O (single isomer, unassigned) [Example 232, N-((1-(2,4-difluorobenzyl)spiro[2.2]pentan-1-yl)methyl)-1-methyl-5-oxo-4,5-dihydro-1H-1,2,4-triazole-3-carboxamide] | 6.65 | 7.56
17 | O=C(NCC1(Cc2ccc(F)cc2F)CC12CC2)c1noc(=O)[nH]1 (single isomer, unassigned) [Example 233] | 5.77 | 7.10
18 | O=C(NCC1(Cc2ccc(F)cc2F)CC12CC2)c1noc(=O)[nH]1 (single isomer, unassigned) [Example 234] | 5.24 | 6.30
19 | O=C(NCC1(Cc2ccc(F)cc2F)CCC1)c1cncc(=O)[nH]1 [Example 16, N-((1-(2,4-difluorobenzyl)cyclobutyl)methyl)-6-oxo-1,6-dihydropyrazine-2-carboxamide] | – | 7.35
20 | CC[C@H](CNC(=O)c1noc(=O)[nH]1)Cc1ccc(F)cc1F [Example 209] | 5.96 | –
21 | Cn1nc(C(=O)NCC(C)(Cc2ccc(F)cc2F)C2CC2)[nH]c1=O (centres unmarked) [Example 210, N-(2-cyclopropyl-3-(2,4-difluorophenyl)-2-methylpropyl)-1-methyl-5-oxo-4,5-dihydro-1H-1,2,4-triazole-3-carboxamide] | 6.82 | –
22 | O=C(NCC1(Cc2ccc(F)cc2F)CCC1)c1n[nH]c(=O)o1 [Example 211] | 6.05 | –
23 | Cn1nc(C(=O)NC[C@H](Cc2c(F)cccc2F)C2CC2)[nH]c1=O [Example 212] | 6.18 | –
24 | O=C(NCC1(Cc2ccc(F)cc2F)CCC1)c1cnc[nH]c1=O [Example 213, N-((1-(2,4-difluorobenzyl)cyclobutyl)methyl)-6-oxo-1,6-dihydropyrimidine-5-carboxamide] | <4.57 | –
25 | O=C(NCC(Cc1ccc(F)cc1Cl)C1CC1)c1nccc(=O)[nH]1 (centres unmarked) [Example 214] | <4.52 | –
26 | O=C(NCC1(Cc2ccc(F)cc2F)CC(F)C1)c1nccc(=O)[nH]1 (centres unmarked) [Example 215] | 6.34 | –
27 | Cn1nc(C(=O)NCC(Cc2c(F)cc(F)cc2Cl)C2CC2)[nH]c1=O (centres unmarked) [Example 220] | 5.56 | –
28 | Cn1nc(C(=O)NCC(Cc2ccc(Cl)cc2F)C2CC2)[nH]c1=O (centres unmarked) [Example 222] | 6.11 | –
29 | Cn1nc(C(=O)NCC2Cc3ccccc3O2)[nH]c1=O (centres unmarked) [Reference Example 114, N-((2,3-dihydrobenzofuran-2-yl)methyl)-1-methyl-5-oxo-4,5-dihydro-1H-1,2,4-triazole-3-carboxamide] | <4.57 | –
